The record followed here is patent publication US5356898A, “Substituted 4,6-di-tertiary-butyl 5-hydroxy-pyrimidines” (Warner-Lambert Company, priority 1993, dated 1994).

For assay [1], the system named is 5-lipoxygenase. Put plainly: ARBL whole cell 5-lipoxygenase assay (LTB4 formation in RBL-1 cells, RIA). Conditions: @ 10 μM; inhibition of LTB4 formation, RBL-1 cells stimulated with calcium ionophore A23187. In kind it is cell-based, rat. On the procedure: (§1) ARBL/ARBC Whole Cell 5-Lipoxygenase and Cyclooxygenase Assays The rat basophilic leukemia cell line (RBL-1) was obtained from the American Type Culture Collection (Rockville, Md.). Radioimmunoassay (RIA) kits of LTB4 and PGF2.sbsb.α were obtained from Amersham (Arlington Heights, Ill.) and Seragen (Boston, Mass.), respectively. RBL-1 cells are grown in suspension culture in Eagle's minimum essential medium supplemented with 12% fetal bovine serum at 37° C. in an incubator supplied with air-5% carbon dioxide. Cells are harvested by centrifugation. They are washed with cold phosphate buffered saline pH 7.4 (PBS; NaCl, 7.1 g; Na2 HPO4, 1.15 g; KH2 PO4, 0.2 g; and KCl, 0.2 g/l). Cells are finally suspended in PBS containing 1.0 mM calcium at a density of 2×10^6 cells/mi. Cells are incubated with and without test agent (in DMSO) (1% DMSO is without effect on arachidonic acid metabolism) for ten minutes at room temperature. Calcium ionophore A23187 (5 μM) is added and cells are incubated for seven minutes at 37° C. The reaction is stopped by chilling the tubes on ice for ten minutes. Cells are separated by centrifugation and the supernatant is stored at -20° Aliquots (100 μl) are analyzed for LTB4 and PGF2.sbsb.α using radioimmunoassay kits as provided by the supplier. […]

The test system of assay [2] is cyclooxygenase. Put plainly: ARBC whole cell cyclooxygenase assay (PGF2α formation in RBL-1 cells, RIA). In kind it is cell-based, rat. To be noted: @ 10 μM; inhibition of PGF2α formation, RBL-1 cells stimulated with calcium ionophore A23187. On the procedure: as §1

Molecules are shown by their SMILES.

`CC(C)(C)c1nc(C#N)nc(C(C)(C)C)c1O` [Example 19, 4,6-Bis.(1,1-dimethylethyl)-5-hydroxy-2-pyrimidine carbonitrile]: the ARBL in assay [1] stood at 70%. For the same molecule, the ARBC in assay [2] is listed as 45%.
The like results for `CSc1nnc(-c2nc(C(C)(C)C)c(O)c(C(C)(C)C)n2)s1` [Example 13, 5-[4,6-Bis(1,1-dimethylethyl)-5-hydroxy-2-pyrimidinyl]-2-thiomethoxy-1,3,4-3H-thiadiazole] were, in that order, 93% and 85%.
